In general, IC50 refers to the concentration that inhibits the measured activity by half.

Molecules are shown by their SMILES.

Experimental findings from patent US12152038B2, “Vasopressin receptor antagonists and products and methods related thereto” (Neumora Therapeutics, Inc., priority 2017, dated 2024) are described below.

The target in one test is T1, V1a receptors (Rattus norvegicus, UniProt P30560).
T1 construct: Rat choroid plexus (RCP) cell lines express functional V1a receptors; endogenous in cells; host or cells: rat choroid plexus (RCP) cell line, RCP P9(18)
Put plainly: AVP induced phospho-ERK measurement in rat choroid plexus (RCP) cells. To be noted: RCP cells stimulated with AVP, pERK1/2 to total ERK1/2 ratio. It counts as cell-based. The method, then:
Rat choroid plexus (RCP) cell lines express functional V1a receptors measured by increased calcium concentrations in response to V1a receptor agonists (Battle et al., Biochem. Biophys. Res. Comm. 2000).
RCP P9(18) cells were seeded 30K/well, in 100 μl growth medium containing 10% FBS in polystyrene 96-well plates and incubated at 37° C., 5% CO2 and incubated overnight. The following day, the growth medium was replaced with 50 μl pre-warmed HBSS containing 20 mM HEPES and the cells were incubated at 37° C., 5% CO2 for 1.5 hrs. 1 mM AVP (Sigma V9879) was freshly prepared in distilled water in a glass vial and diluted to 3× concentrations in HBSS containing 20 mM HEPES and 0.1% BSA in glass vials and kept on ice. […] Final concentrations of AVP: 10, 100 or 1000 nM. […] Cells were lysed with 25 μl 4×CST lysis buffer containing protease and phosphatase inhibitors, PMSF and SDS and then stored at −80° C., for 48 h. The lysates were thawed, centrifuged at 2000 g for 30 min at 4° C. and 40 μl supernatants assayed for pERK1/2 (Thr202/Tyr204; Thr185/Tyr187) and total ERK1/2 using MSD kit K15107D. The MSD ECL data for the lysates were corrected for no cell blanks, then phospho-protein levels expressed as a ratio to the total ERK1/2 level. The ratios were expressed as fold-change from the vehicle-treated control at each timepoint.

Another test relates to Male CD-1 mice. The test is described as follows: AVP induced scratching, digging and grooming behavior in mouse. The format is in vivo. To be noted: 100 mg/kg, po; AVP i.c.v.; 15 minutes observation. From the text: Administration of Arginine-Vasopressin (AVP) intracerebroventricularly (i.c.v.) elicits characteristic scratching, digging and grooming behavior in mice that can be measured readily and is sensitive to blockade with vasopressin antagonists (Meisenberg, Ann N Y Acad Sci. 525:257-69, 1988; Bleickardt et. al., Psychopharmacology (Berl). 202(4):711-8, 2009).
Male CD-1 mice (Charles River Germany) weighing 22-25 g upon the study in-life were used for this study. Animals were housed in groups of 4-5 per cage in standard temperature (22±1° C.) and light-controlled environment (lights on from 7 am to 8 pm), with ad libitum access to food and water. Prior to commencing any procedures to the mice, they were allowed to habituate in the vivarium for a minimum of 7 days. Anesthesia was induced in a plexiglass chamber for 2-3 min with 5% isoflurane and maintained through a snout mask with 1-2% isoflurane thereafter. A homeothermic blanket system with a rectal probe was used to monitor and maintain the animal's body temperature at 37.0° C.±1.5° C. during the operation. Anesthetized mice were placed in a stereotaxic apparatus and skin between the ears shaved and disinfected with povidone-iodine solution (Betadine). A 10-μl Hamilton syringe with 28-gauge needle was used for the i.c.v. injections. All animals receive identical AVP injections (3.689 μM) or sterile saline (0.9% sodium chloride solution) into the right lateral ventricle at the following coordinates: AP=+0.5 mm; ML=+1.0 mm; DV=−2.5 mm (approximately from bregma). The actual coordinates were calculated by the distance from the point in midline between the eyes and no skin incision was made. […]
Mice were observed and video-recorded for 15 minutes following AVP/saline administration and behaviors were measured (in seconds) and a cumulative time was calculated. […] Using this assay, balovaptan (100 and 300 mg/kg, po), JNJ-17308616 (30, 100 mg/kg, po) and Compound No. 1-83B (100, 300, 500 mg/kg, po) were evaluated for antagonist activity to AVP-induced scratching behaviors.

T1 sequence (P30560 whole entry): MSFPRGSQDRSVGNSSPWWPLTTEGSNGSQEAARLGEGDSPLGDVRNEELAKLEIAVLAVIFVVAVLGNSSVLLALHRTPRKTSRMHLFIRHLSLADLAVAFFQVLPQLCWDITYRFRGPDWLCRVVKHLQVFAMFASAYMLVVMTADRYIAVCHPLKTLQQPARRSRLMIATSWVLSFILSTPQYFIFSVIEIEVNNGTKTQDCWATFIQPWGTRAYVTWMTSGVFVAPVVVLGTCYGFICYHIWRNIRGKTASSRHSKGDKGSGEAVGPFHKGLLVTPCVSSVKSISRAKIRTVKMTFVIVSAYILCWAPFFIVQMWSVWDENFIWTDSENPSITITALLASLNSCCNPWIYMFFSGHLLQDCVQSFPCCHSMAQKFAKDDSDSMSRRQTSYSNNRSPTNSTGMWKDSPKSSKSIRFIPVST

As for `CN1Cc2cc(Cl)ccc2-n2c(nnc2[C@H]2CC[C@H](Oc3ccccn3)CC2)C1` [balovaptan, reference compound], the concentration for half-maximal inhibition (IC50) on V1a receptors (first study) worked out at 10.9 nM; on V1a receptors (second study), 13.6 nM. The “antagonist activity to AVP-induced scratching behaviors” value in the test on Male CD-1 mice is “effective”.
